Values of other authors as cited in US7956061B2, “Bicyclic pyrimidines as dipeptidyl peptidase-IV inhibitors for the treatment or prevention of diabetes” (Merck Sharp & Dohme Corp., priority 2005, dated 2011).

Experiments:
cardiac allograft = settings: rats; Transplantation, 63: 1495-1500 (1997)
hematopoiesis = settings: mouse, cyclophosphamide-induced neutropenia; WO 99/56753
DPP-IV = biological target: T1, DPP-IV (Homo sapiens, UniProt P27487); settings: plasma
T1 construct: GRF is rapidly degraded in plasma to GRF[3-44]
T1 sequence (P27487 39-766 limits assumed, species assumed): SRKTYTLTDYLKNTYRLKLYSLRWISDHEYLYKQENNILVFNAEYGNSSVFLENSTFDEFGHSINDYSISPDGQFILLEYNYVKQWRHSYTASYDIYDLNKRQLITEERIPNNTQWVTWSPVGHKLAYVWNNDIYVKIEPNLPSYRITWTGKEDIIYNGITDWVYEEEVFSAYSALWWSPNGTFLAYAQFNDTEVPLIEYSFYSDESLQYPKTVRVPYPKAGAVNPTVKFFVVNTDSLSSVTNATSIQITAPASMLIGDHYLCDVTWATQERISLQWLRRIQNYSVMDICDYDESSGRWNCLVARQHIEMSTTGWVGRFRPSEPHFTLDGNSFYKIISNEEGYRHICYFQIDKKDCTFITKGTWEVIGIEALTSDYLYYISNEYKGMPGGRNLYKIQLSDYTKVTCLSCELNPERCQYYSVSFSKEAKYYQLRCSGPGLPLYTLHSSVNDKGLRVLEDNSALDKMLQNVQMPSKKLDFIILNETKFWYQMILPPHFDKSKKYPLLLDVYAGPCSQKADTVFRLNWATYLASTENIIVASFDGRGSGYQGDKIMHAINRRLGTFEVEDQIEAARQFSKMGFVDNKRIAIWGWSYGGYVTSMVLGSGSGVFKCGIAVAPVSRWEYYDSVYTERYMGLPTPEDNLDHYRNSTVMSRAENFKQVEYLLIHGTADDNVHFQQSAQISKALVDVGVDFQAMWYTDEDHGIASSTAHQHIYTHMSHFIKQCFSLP

In the case of `CC(C)N1CCC(c2ccccc2)(c2ccccc2)CC1` [Prodipine, Pro-Pro-diphenyl-phosphonate], the cardiac allograft survival (cardiac allograft) is listed as “double cardiac allograft survival in rats from day 7 to day 14”.
For `CC(C)[C@H](N)C(=O)N1CCC[C@H]1B(O)O` [Val-Boro-Pro], the effect on hematopoiesis (hematopoiesis) is listed as “stimulated hematopoiesis”.
In the case of diprotin A, the “effect on degradation of GRF to GRF[3-44]” value (DPP-IV) is given as “prevented”.
